Measured values from patent publication US20230398130A1, “METHODS AND COMPOSITIONS FOR DIFFERENTIATING STEM CELLS” (Massachusetts Institute of Technology, priority 2020, published 2023).

How the values were obtained:
ISC-enriched organoids [1] = assay: Primary screen, 384-well 2.5-D organoid differentiation (ENR+CD, 6 days): basal lysozyme secretion (LYZ.NS); assay type: cell-based, murine; conditions: for Dose.FC.LYZ.NS (log 2 fold change): vs plate median; for Dose.FC.LYZ.NS: FC vs plate median; for SSMD.LYZ.NS: strictly standardized mean difference
Excerpt: (§1) High-throughput screening.

ISC-enriched organoids [2] = assay: Primary screen, 384-well 2.5-D organoid differentiation (ENR+CD, 6 days): carbachol-induced lysozyme secretion (LYZ.S); assay type: cell-based, murine; conditions: primary screen; for Dose.FC.LYZ.S (log 2 fold change): vs plate median; for Dose.FC.LYZ.S: FC vs plate median; for Z.LYZ.S: standard z score; for SSMD.LYZ.S: strictly standardized mean difference
Excerpt: as §1

ISC-enriched organoids [3] = assay: Primary screen, 384-well 2.5-D organoid differentiation (ENR+CD, 6 days, Target Selective Inhibitor Library, vs whole-plate median): ATP (CellTiter-Glo 3D, CTG); conditions: for Dose.FC.CTG (log 2 fold change): vs plate median; for Dose.FC.CTG: FC vs plate median; for SSMD.CTG: strictly standardized mean difference
[4] = Dose 0.08 uM, primary screen, standard z score
[5] = Dose 0.40 uM, primary screen, standard z score
[6] = Dose 2.00 uM, primary screen, standard z score
[7] = Dose 10.00 uM, primary screen, standard z score
[8] = primary screen, 1st of the 4 dose lines of the treatment (dose not given)
[9] = primary screen, 2nd of the 4 dose lines of the treatment (dose not given)
[10] = primary screen, 3rd of the 4 dose lines of the treatment (dose not given)
[11] = primary screen, 4th of the 4 dose lines of the treatment (dose not given)
[12] = 1st of the 4 dose lines of the treatment (dose not given)
[13] = 2nd of the 4 dose lines of the treatment (dose not given)
[14] = 3rd of the 4 dose lines of the treatment (dose not given)
[15] = 4th of the 4 dose lines of the treatment (dose not given)
[16] = Dose 0.08 uM, standard z score of FC
[17] = Dose 0.40 uM, standard z score of FC
[18] = Dose 2.00 uM, standard z score of FC
[19] = Dose 10.00 uM, standard z score of FC

O=C1CC(=O)c2c(Cl)c(Cl)c(Cl)c(Cl)c21 [TCID]
Z.LYZ.NS (standard z score) (ISC-enriched organoids [1]; Dose 0.08 uM, primary screen): 0.431 | Dose.FC.LYZ.NS (log 2 fold change) (ISC-enriched organoids [1]; Dose 0.08 uM, primary screen): 0.049 | Z.LYZ.NS (standard z score) (ISC-enriched organoids [1]; Dose 0.40 uM, primary screen): −0.155 | Dose.FC.LYZ.NS (log 2 fold change) (ISC-enriched organoids [1]; Dose 0.40 uM, primary screen): −0.018 | Z.LYZ.NS (standard z score) (ISC-enriched organoids [1]; Dose 2.00 uM, primary screen): 0.578 | Dose.FC.LYZ.NS (log 2 fold change) (ISC-enriched organoids [1]; Dose 2.00 uM, primary screen): 0.066 | Z.LYZ.NS (standard z score) (ISC-enriched organoids [1]; Dose 10.00 uM, primary screen): −0.159 | Dose.FC.LYZ.NS (log 2 fold change) (ISC-enriched organoids [1]; Dose 10.00 uM, primary screen): −0.018 | Dose.FC.LYZ.S (log 2 fold change) (ISC-enriched organoids [2]; Dose 0.08 uM): 0.062 | Dose.FC.LYZ.S (log 2 fold change) (ISC-enriched organoids [2]; Dose 0.40 uM): 0.017 | Dose.FC.LYZ.S (log 2 fold change) (ISC-enriched organoids [2]; Dose 2.00 uM): −0.066 | Dose.FC.LYZ.S (log 2 fold change) (ISC-enriched organoids [2]; Dose 10.00 uM): −0.054 | Z.CTG (standard z score) (ISC-enriched organoids [3]; Dose 0.08 uM, primary screen): −0.325 | Dose.FC.CTG (log 2 fold change) (ISC-enriched organoids [3]; Dose 0.08 uM, primary screen): −0.136 | Z.CTG (standard z score) (ISC-enriched organoids [3]; Dose 0.40 uM, primary screen): −0.017 | Dose.FC.CTG (log 2 fold change) (ISC-enriched organoids [3]; Dose 0.40 uM, primary screen): −0.007 | Z.CTG (standard z score) (ISC-enriched organoids [3]; Dose 2.00 uM, primary screen): −0.517 | Dose.FC.CTG (log 2 fold change) (ISC-enriched organoids [3]; Dose 2.00 uM, primary screen): −0.217 | Z.CTG (standard z score) (ISC-enriched organoids [3]; Dose 10.00 uM, primary screen): −0.545 | Dose.FC.CTG (log 2 fold change) (ISC-enriched organoids [3]; Dose 10.00 uM, primary screen): −0.228

COc1cc(-n2c(=S)[nH]c3ccccc3c2=O)c(Cl)cc1Cl [Mdivi-1]
Dose.FC.LYZ.NS (ISC-enriched organoids [1]; Dose 0.08 uM, primary screen): 0.177 log 2 fold change | Z.LYZ.NS (ISC-enriched organoids [1]; [4]): 1.537 | Dose.FC.LYZ.NS (ISC-enriched organoids [1]; Dose 0.40 uM, primary screen): 0.156 log 2 fold change | Z.LYZ.NS (ISC-enriched organoids [1]; [5]): 1.358 | Dose.FC.LYZ.NS (ISC-enriched organoids [1]; Dose 2.00 uM, primary screen): −0.022 log 2 fold change | Z.LYZ.NS (ISC-enriched organoids [1]; [6]): −0.194 | Dose.FC.LYZ.NS (ISC-enriched organoids [1]; Dose 10.00 uM, primary screen): −0.268 log 2 fold change | Z.LYZ.NS (ISC-enriched organoids [1]; [7]): −2.333 | SSMD.LYZ.NS (ISC-enriched organoids [1]; [8]): 0.715 | SSMD.LYZ.NS (ISC-enriched organoids [1]; [9]): 0.481 | SSMD.LYZ.NS (ISC-enriched organoids [1]; [10]): −0.093 | SSMD.LYZ.NS (ISC-enriched organoids [1]; [11]): −1.749 | Dose.FC.LYZ.S (ISC-enriched organoids [2]; Dose 0.08 uM): 0.079 log 2 fold change | Dose.FC.LYZ.S (ISC-enriched organoids [2]; Dose 0.40 uM): 0.030 log 2 fold change | Dose.FC.LYZ.S (ISC-enriched organoids [2]; Dose 2.00 uM): −0.048 log 2 fold change | Dose.FC.LYZ.S (ISC-enriched organoids [2]; Dose 10.00 uM): −0.411 log 2 fold change | Z.LYZ.S (ISC-enriched organoids [2]; [12]): 0.511 | Z.LYZ.S (ISC-enriched organoids [2]; [13]): 0.196 | Z.LYZ.S (ISC-enriched organoids [2]; [14]): −0.310 | Z.LYZ.S (ISC-enriched organoids [2]; [15]): −2.655 | SSMD.LYZ.S (ISC-enriched organoids [2]; [12]): 0.520 | SSMD.LYZ.S (ISC-enriched organoids [2]; [13]): 0.152 | SSMD.LYZ.S (ISC-enriched organoids [2]; [14]): −0.196 | SSMD.LYZ.S (ISC-enriched organoids [2]; [15]): −2.328 | Dose.FC.CTG (ISC-enriched organoids [3]; Dose 0.08 uM, primary screen): 0.008 log 2 fold change | Z.CTG (ISC-enriched organoids [3]; [4]): 0.019 | Dose.FC.CTG (ISC-enriched organoids [3]; Dose 0.40 uM, primary screen): −0.031 log 2 fold change | Z.CTG (ISC-enriched organoids [3]; [5]): −0.074 | Dose.FC.CTG (ISC-enriched organoids [3]; Dose 2.00 uM, primary screen): −0.112 log 2 fold change | Z.CTG (ISC-enriched organoids [3]; [6]): −0.267 | Dose.FC.CTG (ISC-enriched organoids [3]; Dose 10.00 uM, primary screen): −0.527 log 2 fold change | Z.CTG (ISC-enriched organoids [3]; [7]): −1.259 | SSMD.CTG (ISC-enriched organoids [3]; [8]): 0.026 | SSMD.CTG (ISC-enriched organoids [3]; [9]): −0.072 | SSMD.CTG (ISC-enriched organoids [3]; [10]): −0.356 | SSMD.CTG (ISC-enriched organoids [3]; [11]): −1.838

O=C(Nc1ccccc1)c1cc([N+](=O)[O-])ccc1Cl [GW9662]
Dose.FC.LYZ.NS (ISC-enriched organoids [1]; Dose 0.08 uM, primary screen): 0.035 log 2 fold change | Z.LYZ.NS (ISC-enriched organoids [1]; [4]): 0.305 | Dose.FC.LYZ.NS (ISC-enriched organoids [1]; Dose 0.40 uM, primary screen): 0.098 log 2 fold change | Z.LYZ.NS (ISC-enriched organoids [1]; [5]): 0.852 | Dose.FC.LYZ.NS (ISC-enriched organoids [1]; Dose 2.00 uM, primary screen): 0.046 log 2 fold change | Z.LYZ.NS (ISC-enriched organoids [1]; [6]): 0.400 | Dose.FC.LYZ.NS (ISC-enriched organoids [1]; Dose 10.00 uM, primary screen): 0.030 log 2 fold change | Z.LYZ.NS (ISC-enriched organoids [1]; [7]): 0.264 | SSMD.LYZ.NS (ISC-enriched organoids [1]; [8]): 0.272 | SSMD.LYZ.NS (ISC-enriched organoids [1]; [9]): 0.722 | SSMD.LYZ.NS (ISC-enriched organoids [1]; [10]): 0.336 | SSMD.LYZ.NS (ISC-enriched organoids [1]; [11]): 0.282 | Dose.FC.LYZ.S (ISC-enriched organoids [2]; Dose 0.08 uM): 0.036 log 2 fold change | Dose.FC.LYZ.S (ISC-enriched organoids [2]; Dose 0.40 uM): 0.080 log 2 fold change | Dose.FC.LYZ.S (ISC-enriched organoids [2]; Dose 2.00 uM): 0.093 log 2 fold change | Dose.FC.LYZ.S (ISC-enriched organoids [2]; Dose 10.00 uM): 0.020 log 2 fold change | Z.LYZ.S (ISC-enriched organoids [2]; [12]): 0.235 | Z.LYZ.S (ISC-enriched organoids [2]; [13]): 0.520 | Z.LYZ.S (ISC-enriched organoids [2]; [14]): 0.599 | Z.LYZ.S (ISC-enriched organoids [2]; [15]): 0.131 | SSMD.LYZ.S (ISC-enriched organoids [2]; [12]): 0.218 | SSMD.LYZ.S (ISC-enriched organoids [2]; [13]): 0.534 | SSMD.LYZ.S (ISC-enriched organoids [2]; [14]): 0.571 | SSMD.LYZ.S (ISC-enriched organoids [2]; [15]): 0.149 | Dose.FC.CTG (ISC-enriched organoids [3]; Dose 0.08 uM, primary screen): 0.115 log 2 fold change | Z.CTG (ISC-enriched organoids [3]; [4]): 0.274 | Dose.FC.CTG (ISC-enriched organoids [3]; Dose 0.40 uM, primary screen): 0.041 log 2 fold change | Z.CTG (ISC-enriched organoids [3]; [5]): 0.098 | Dose.FC.CTG (ISC-enriched organoids [3]; Dose 2.00 uM, primary screen): 0.212 log 2 fold change | Z.CTG (ISC-enriched organoids [3]; [6]): 0.508 | Dose.FC.CTG (ISC-enriched organoids [3]; Dose 10.00 uM, primary screen): 0.133 log 2 fold change | Z.CTG (ISC-enriched organoids [3]; [7]): 0.318 | SSMD.CTG (ISC-enriched organoids [3]; [8]): 0.301 | SSMD.CTG (ISC-enriched organoids [3]; [9]): 0.117 | SSMD.CTG (ISC-enriched organoids [3]; [10]): 0.715 | SSMD.CTG (ISC-enriched organoids [3]; [11]): 0.378

NCC(=O)Nc1ccc(-n2nc(C(F)(F)F)cc2-c2ccc3c(ccc4ccccc43)c2)cc1 [OSU-03012 (AR-12)]
Dose.FC.LYZ.NS (ISC-enriched organoids [1]; Dose 0.08 uM, primary screen): 0.087 log 2 fold change | Z.LYZ.NS (ISC-enriched organoids [1]; [16]): 0.755 | Dose.FC.LYZ.NS (ISC-enriched organoids [1]; Dose 0.40 uM, primary screen): 0.033 log 2 fold change | Z.LYZ.NS (ISC-enriched organoids [1]; [17]): 0.285 | Dose.FC.LYZ.NS (ISC-enriched organoids [1]; Dose 2.00 uM, primary screen): 0.053 log 2 fold change | Z.LYZ.NS (ISC-enriched organoids [1]; [18]): 0.460 | Dose.FC.LYZ.NS (ISC-enriched organoids [1]; Dose 10.00 uM, primary screen): −0.049 log 2 fold change | Z.LYZ.NS (ISC-enriched organoids [1]; [19]): −0.423 | Dose.FC.LYZ.S (ISC-enriched organoids [2]; Dose 0.08 uM): 0.126 log 2 fold change | Dose.FC.LYZ.S (ISC-enriched organoids [2]; Dose 0.40 uM): 0.113 log 2 fold change | Dose.FC.LYZ.S (ISC-enriched organoids [2]; Dose 2.00 uM): 0.060 log 2 fold change | Dose.FC.LYZ.S (ISC-enriched organoids [2]; Dose 10.00 uM): −0.128 log 2 fold change | Dose.FC.CTG (ISC-enriched organoids [3]; Dose 0.08 uM, primary screen): 0.205 log 2 fold change | Z.CTG (ISC-enriched organoids [3]; [16]): 0.491 | Dose.FC.CTG (ISC-enriched organoids [3]; Dose 0.40 uM, primary screen): 0.114 log 2 fold change | Z.CTG (ISC-enriched organoids [3]; [17]): 0.272 | Dose.FC.CTG (ISC-enriched organoids [3]; Dose 2.00 uM, primary screen): 0.233 log 2 fold change | Z.CTG (ISC-enriched organoids [3]; [18]): 0.556 | Dose.FC.CTG (ISC-enriched organoids [3]; Dose 10.00 uM, primary screen): 0.078 log 2 fold change | Z.CTG (ISC-enriched organoids [3]; [19]): 0.185
